From publication PMC12603985, “Dissimilar Reactions and Enzymes for Psilocybin Biosynthesis in Inocybe and Psilocybe Mushrooms” (Angewandte Chemie (International Ed. in English), 2025)

Tests used:
Type in all cases: biochemical, Inocybe corydalina
IpsK = tested on: T1, IpsK; experiment: Michaelis-Menten kinetics of phosphotransfer; conditions: phosphate donor ATP; product assays in TRIS-HCl pH 7.5
T1 construct: N-terminally hexahistidine-tagged; recombinant, purified

IpsM2 = tested on: T2, IpsM2; experiment: Michaelis-Menten kinetics of methyl transfer; conditions: methyl donor SAM; product assays in TRIS-HCl pH 7.5
T2 construct: heterologously produced and purified

IpsM1 = tested on: T3, IpsM1; experiment: Michaelis-Menten kinetics of methyl transfer; conditions: methyl donor SAM; product assays in TRIS-HCl pH 7.5
T3 construct: heterologously produced and purified

IpsD = tested on: T4, IpsD; experiment: Michaelis-Menten kinetics of decarboxylation; conditions: PLP-dependent
T4 construct: obligate dimer predicted by the model; PLP lysine K300

Row | Structure (SMILES) | Km (IpsK) [µM] | Km (IpsM2) [µM] | Km (IpsM1) [µM] | Km (IpsD) [µM]
1 | CN(C)CCc1c[nH]c2cccc(O)c12 [compound 4, psilocin] | 20.5 |  |  | 
2 | NCCc1c[nH]c2cccc(O)c12 [compound 5, 4-hydroxytryptamine] |  | 64.5 | 101 | 
3 | N[C@@H](Cc1c[nH]c2cccc(O)c12)C(=O)O [compound 7, 4-hydroxy-L-tryptophan] |  |  |  | 66
4 | CNCCc1c[nH]c2cccc(O)c12 [compound 10, 10] | 337 | 433 | 138 | 
